The source of these data is patent US12134769B2, “MicroRNA-198 as a tumor suppressor in ovarian cancer” (Baylor College of Medicine, priority 2011, dated 2024).

Assay [1] has as its system AsPC1 cells. As to the kind of experiment: NF-κB inhibitor assay, OCT-2 expression. Type of assay: cell-based, human. The note with it: FIG. 11B.
In assay [2] the test system is MIA-MSLN cells. Briefly: NF-κB inhibitor assay, expression by real-time RT-PCR and western blot. Type of assay: cell-based, human. How it is done:
Western blots were performed as previously described (Li et al., 2008). Membranes were probed with: anti-MSLN monoclonal antibody (1:1000) (Abcam); PBX-1 polyclonal antibody (1:1000) and Caspase 3 antibody (1:1000) (Cell Signaling); OCT-2 polyclonal antibody (1:400), and VCP polyclonal antibody (1:200) (Santa Cruz Biotechnology); or anti-β-actin, Tubulin, LaminA or GAPDH antibodies (1:10,000) (Sigma Aldrich). Secondary incubation was performed with horseradish peroxidase-linked secondary antibody (1:2,000) (anti-mouse, anti-goat or anti-rabbit) (Cell Signaling).
Differential expression of 95 miRNAs chosen for their potential roles in cancer, cell development, and apoptosis was analyzed by RT-PCR using the QuantiMir System from SBI System Biosciences in both MIA-V and MIA-MSLN cells. The array plate also included the U6 transcript as a normalization signal. cDNAs from different cell lines and tissue samples were mixed with SYBR® Green Mastermix (Bio-Rad Laboratories) plus the universal reverse primer. Specific primers (1 μl) were added to each well of the qPCR plate. Expression levels of each mature miRNA were evaluated using comparative threshold cycle (Ct) method as normalized to that of U6 (2—ΔCt). The expression level of miR-198 was measured in all subsequent experiments using the same method. Real-time RT PCR was performed as previously described for MSLN, ZEB1, PBX-1, and VCP (Li et al., 2008). The primer sequences used are as follows:
MIA-MSLN and MIA-V control cells were treated with 0, 12.5 or 25 μM of the IKK inhibitor Wedelolactone (Calbiochem). The cells were collected after 72 h and protein, RNA, and miRNA extracts were prepared and assayed accordingly.

On to `COc1cc(O)c2c(c1)oc(=O)c1c3cc(O)c(O)cc3oc21` [Wedelolactone], for which the OCT-2 expression result in assay [1] is on record as “OCT-2 expression is blocked”; in assay [2] (MIA-MSLN cells, mRNA and protein levels) it was “almost complete block in OCT-2 expression”. The ZEB1 expression entry in assay [2] (MIA-MSLN cells) is on record as “completely blocked ZEB1 expression”. Moreover, the “increase in miR-198 expression” value in assay [2] (MIA-MSLN cells, compared to untreated controls, 72 h) is recorded as around 17 fold. Besides, in assay [2] (Wedelolactone inhibition of NF-κB, FIG. 3F), the PBX-1 expression result is recorded as “downregulation of PBX-1 expression”.
